Type in all cases: cell-based
Test [1] concerns E. coli ATCC 25922. Description: Minimal Inhibitory Concentration, microtiter broth dilution antibacterial assay. The conditions noted are these: Mueller Hinton broth, 16-20 hours at 37° C., lowest concentration giving a clear well. The text has this:
(§1) Table I, which follows, indicates the Minimal Inhibitory Concentration (MIC) in μg/ml of Peptides (SEQ ID NO:1) through (SEQ ID NO:4), (SEQ ID NO:6) through (SEQ ID NO:13), (SEQ ID NO:16), (SEQ ID NO:20), (SEQ ID NO:21) and (SEQ ID NO:23) against S. aureus strain ATCC 25923, P. aeruginosa strain ATCC 27853, E. coli strain 25922, and Candida albicans. The procedure for the antibacterial assay is based upon the guidelines of the National Committee for Clinical Laboratory Standards, Document M7-T2, Volume 8, No. 8, 1988. Stock solutions of the peptides hereinabove mentioned are prepared at a concentration of 512 μg/ml in sterile deionized distilled water and stored at […]. Each peptide is a C-terminal amide and may or may not be acetylated at the N-terminus. An acetyl group at the N-terminus is indicated by an X. The stock peptide solution is diluted in serial dilutions (1:2) down the wells of a microtiter plate so that the final concentrations of peptides in the wells are 0.25, 0.50, 1, 2, 4, 8, 16, 32, 64, 128, and 256 μg/ml. 1-5×10^5 CFUs/ml of either S. aureus ATCC 25923, E. coli ATCC 25922, P. aeruginosa ATCC 27853, or Candida albicans were added to the wells in full strength Mueller Hinton broth (BBL 11443) from a mid-log culture. The inoculum is standardized spectrophotometrically at 600 nm and is verified by colony counts. The plates are incubated for 16-20 hours at 37° C., and the minimal inhibitory concentration (MIC) for each peptide is determined. Minimal inhibitory concentration is defined as the lowest concentration of peptide which produces a clear well in the microtiter plate.

Test [2] concerns S. aureus strain ATCC 25923. The test is described as above. The conditions noted are these: S. aureus ATCC 25923; Mueller Hinton broth; 16-20 hours at 37° C.; lowest concentration giving a clear well.
Description: as §1

For test [3], the system named is Candida albicans. The test is described as follows: Minimal Inhibitory Concentration, microtiter broth dilution assay. As to conditions: Mueller Hinton broth, 16-20 hours at 37° C., lowest concentration giving a clear well.
Description: as §1

Test [4] has as its system P. aeruginosa strain ATCC 27853. The test is described as follows: Minimal Inhibitory Concentration, microtiter broth dilution antibacterial assay. As to conditions: P. aeruginosa ATCC 27853; Mueller Hinton broth; 16-20 hours at 37° C.; lowest concentration giving a clear well.
Description: as §1

The structures appear in SMILES notation. Residues, ends and D or L forms follow the SMILES beside them.

Regarding `CC[C@H](C)[C@H](NC(C)=O)C(=O)NCC(=O)N[C@@H](CCCCN)C(=O)N[C@@H](Cc1ccccc1)C(=O)N[C@@H](CC(C)C)C(=O)N[C@@H](CCCCN)C(=O)N[C@@H](CCCCN)C(=O)N[C@@H](C)C(=O)N[C@@H](CCCCN)C(=O)N[C@@H](CCCCN)C(=O)N[C@@H](Cc1ccccc1)C(=O)NCC(=O)N[C@@H](CCCCN)C(=O)N[C@@H](C)C(=O)N[C@@H](Cc1ccccc1)C(=O)N[C@H](C(=O)N[C@@H](CCCCN)C(=O)N[C@H](C(=O)N[C@@H](CC(C)C)C(=O)N[C@@H](CCCCN)C(=O)N[C@@H](CCCCN)C(N)=O)[C@@H](C)CC)C(C)C` [X- (SEQ ID NO: 1)-NH2] (Ac-IGKFLKKAKKFGKAFVKILKK-NH2), the “Minimal Inhibitory Concentration E. coli” value in test [1] was 8 µg/mL. Moreover, in test [2], the “Minimal Inhibitory Concentration S. aureus” value was found to be 8 µg/mL. Further, the “Minimal Inhibitory Concentration C. albicans” value in test [3] worked out at 128 µg/mL.

On to `CC[C@H](C)[C@H](NC(=O)[C@H](C)NC(=O)[C@H](CCCCN)NC(=O)CNC(=O)[C@@H](NC(=O)[C@H](CCCCN)NC(=O)[C@H](CCCCN)NC(=O)[C@H](C)NC(=O)[C@H](CCCCN)NC(=O)[C@H](CCCCN)NC(=O)[C@H](CC(C)C)NC(=O)[C@@H](NC(=O)[C@H](CCCCN)NC(=O)CNC(=O)[C@@H](N)Cc1ccccc1)[C@@H](C)CC)[C@@H](C)CC)C(=O)N[C@H](C(=O)N[C@@H](CCCCN)C(=O)N[C@@H](Cc1ccccc1)C(=O)N[C@@H](CC(C)C)C(=O)N[C@@H](CCCCN)C(=O)N[C@@H](CCCCN)C(N)=O)C(C)C` [(SEQ ID NO: 23)-NH2] (H-FGKILKKAKKIGKAIVKFLKK-NH2), for which the “Minimal Inhibitory Concentration E. coli” value in test [1] stood at 32 µg/mL. Moreover, in test [2], the “Minimal Inhibitory Concentration S. aureus” value is 16 µg/mL. The “Minimal Inhibitory Concentration C. albicans” value in test [3] worked out at 128 µg/mL.

Take `CC[C@H](C)[C@H](N)C(=O)N[C@@H](CCCCN)C(=O)N[C@@H](CCCCN)C(=O)N[C@@H](Cc1ccccc1)C(=O)N[C@@H](CC(C)C)C(=O)N[C@@H](CCCCN)C(=O)N[C@@H](CCCCN)C(=O)N[C@@H](C)C(=O)N[C@@H](CCCCN)C(=O)N[C@@H](CCCCN)C(=O)N[C@@H](Cc1ccccc1)C(=O)NCC(=O)N[C@@H](CCCCN)C(=O)N[C@@H](CCCCN)C(=O)N[C@@H](Cc1ccccc1)C(=O)N[C@@H](CCCCN)C(=O)N[C@@H](CCCCN)C(=O)N[C@H](C(=O)N[C@@H](CC(C)C)C(=O)N[C@@H](CCCCN)C(=O)N[C@@H](CCCCN)C(N)=O)[C@@H](C)CC` [(SEQ ID NO: 2)-NH2] (H-IKKFLKKAKKFGKKFKKILKK-NH2): in test [1], the “Minimal Inhibitory Concentration E. coli” value came out at 16 µg/mL. In addition, in test [4], the “Minimal Inhibitory Concentration P. aeruginosa” value worked out at 8 µg/mL.

For `CC[C@H](C)[C@H](NC(=O)CN)C(=O)N[C@H](C(=O)NCC(=O)N[C@@H](CCCCN)C(=O)N[C@@H](Cc1ccccc1)C(=O)N[C@@H](CC(C)C)C(=O)N[C@@H](CCCCN)C(=O)N[C@@H](CCCCN)C(=O)N[C@@H](C)C(=O)N[C@@H](CCCCN)C(=O)N[C@@H](CCCCN)C(=O)N[C@@H](Cc1ccccc1)C(=O)NCC(=O)N[C@@H](CCCCN)C(=O)N[C@@H](C)C(=O)N[C@@H](Cc1ccccc1)C(=O)N[C@H](C(=O)N[C@@H](CCCCN)C(=O)N[C@H](C(=O)N[C@@H](CC(C)C)C(=O)N[C@@H](CCCCN)C(=O)N[C@@H](CCCCN)C(N)=O)[C@@H](C)CC)C(C)C)[C@@H](C)CC` [(SEQ ID NO: 16)-NH2] (H-GIIGKFLKKAKKFGKAFVKILKK-NH2), the “Minimal Inhibitory Concentration E. coli” value in test [1] was found to be 8 µg/mL. In addition, the “Minimal Inhibitory Concentration S. aureus” value in test [2] is 4 µg/mL. Further, in test [3], the “Minimal Inhibitory Concentration C. albicans” value worked out at 64 µg/mL.

`CC[C@H](C)[C@H](NC(=O)CN)C(=O)NCC(=O)N[C@@H](CCCCN)C(=O)N[C@@H](Cc1ccccc1)C(=O)N[C@@H](CC(C)C)C(=O)N[C@@H](CCCCN)C(=O)N[C@@H](CCCCN)C(=O)N[C@@H](C)C(=O)N[C@@H](CCCCN)C(=O)N[C@@H](CCCCN)C(=O)N[C@@H](Cc1ccccc1)C(=O)NCC(=O)N[C@@H](CCCCN)C(=O)N[C@@H](C)C(=O)N[C@@H](Cc1ccccc1)C(=O)N[C@H](C(=O)N[C@@H](CCCCN)C(=O)N[C@H](C(=O)N[C@H](C(=O)N[C@@H](CCCCN)C(=O)N[C@@H](CCCCN)C(N)=O)C(C)C)[C@@H](C)CC)C(C)C` [(SEQ ID NO: 6)-NH2] (H-GIGKFLKKAKKFGKAFVKIVKK-NH2): in test [1], the “Minimal Inhibitory Concentration E. coli” value is 16 µg/mL. In test [4], the “Minimal Inhibitory Concentration P. aeruginosa” value was 16 µg/mL. Besides, in test [2], the “Minimal Inhibitory Concentration S. aureus” value is 32 µg/mL.

Source of the values: patent publication US5424290A, “Biologically active peptides and uses therefor” (Magainin Pharmaceuticals Inc., priority 1992, dated 1995).
